{
  "source": "patent US20240424019A1",
  "about": "“SHP1 MODIFIED DENDRITIC CELLS AND EXTRACELLULAR VESICLES DERIVED THEREFROM AND ASSOCIATED METHODS” (BOARD OF REGENTS, THE UNIVERSITY OF TEXAS SYSTEM, priority 2021, published 2024)",
  "key": {"SHP1": {"biological_target": "T1, SHP1 (Mus musculus, UniProt P29351)", "T1 construct": "We immunoprecipitated SHP1 from the vehicle or VitE-treated DC2.4 cells or BMDCs with a monoclonal SHP1 antibody; endogenous in cells", "T1 sequence (P29351 whole entry)": "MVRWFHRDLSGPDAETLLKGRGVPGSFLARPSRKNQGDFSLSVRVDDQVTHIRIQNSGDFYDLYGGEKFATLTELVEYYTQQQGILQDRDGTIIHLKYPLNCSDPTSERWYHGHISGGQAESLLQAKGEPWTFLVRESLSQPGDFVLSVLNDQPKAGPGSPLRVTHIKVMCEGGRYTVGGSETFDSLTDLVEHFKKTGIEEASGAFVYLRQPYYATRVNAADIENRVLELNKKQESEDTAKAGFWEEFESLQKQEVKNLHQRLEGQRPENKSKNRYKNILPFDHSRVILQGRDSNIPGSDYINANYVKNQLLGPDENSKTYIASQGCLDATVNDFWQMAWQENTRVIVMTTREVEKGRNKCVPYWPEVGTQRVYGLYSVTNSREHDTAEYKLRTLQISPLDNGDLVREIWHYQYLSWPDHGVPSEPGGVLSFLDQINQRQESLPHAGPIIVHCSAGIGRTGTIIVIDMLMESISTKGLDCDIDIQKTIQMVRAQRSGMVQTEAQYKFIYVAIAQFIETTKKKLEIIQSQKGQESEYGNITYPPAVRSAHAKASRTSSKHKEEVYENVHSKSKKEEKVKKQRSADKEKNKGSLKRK", "experiment": "SHP1 tyrosine phosphatase activity in LPS-activated BMDCs", "format": "cell-based", "details": "VitE 50 μg/ml vs vehicle, LPS 100 ng/ml stimulation", "description": "FIG. 3A: […] FIG. 3B: t-SNEs by CyTOF and quantification comparing the intensity of […]-SHP1 in TADCs from the vehicle-or VitE-treated EMT6 tumors at day 15 post-implantation. FIG. 3C: Top, SHP1 knockdown in BMDCs was effective. Bottom, CFSE-dilution analysis of OT-1 T cells co-cultured with OVA protein-pulsed BMDCs (ratio 10:1) with knockdown of SHP1 by […]6 versus siCtrl (n=3). Right, quantification of OT-1 T-cell numbers under the indicated condition. FIG. 3D: The binding of VitE to purified SHP1 is analyzed by microscale thermophoresis (MST) binding assay. […] FIG. 3E: Relative tyrosine phosphatase activity of SHP1 immunoprecipitated from LPS (100 ng/ml)-activated DC2.4 cells in the presence of indicated doses of VitE (mean of triplicates). FIG. 3F: SHP1 tyrosine phosphatase activity in LPS (100 ng/ml)-activated BMDCs (n=6) treated with vehicle-or VitE (50 μg/ml). Error bars, s.e.m. ns, no significant. *P<0.05, **P<0.01. ***P<0.001, ****P<0.0001. Bone marrow (BM) was harvested from C57BL/6J, BALB/Cj mice by flushing femurs, tibias, and humeri with DCs culture medium. […] We assessed the phosphatase activity of SHP1 by using the RediPlate 96 EnzChek Tyrosine Phosphatase Assay Kit (ThermoFisher). […] We placed beads into RediPlate wells and incubated them for 30 min at 25° C. before reading them for fluorescence. […]"}, "EMT6 mammary tumors": {"tested_on": "EMT6 mammary tumors", "experiment": "Orthotopic EMT6 mammary tumor model", "format": "in vivo, mouse"}, "B16-GMCSF melanoma": {"tested_on": "B16-GMCSF melanoma", "experiment": "B16-GMCSF melanoma model", "format": "in vivo, mouse"}, "B16-FLT3L melanoma": {"tested_on": "B16-FLT3L melanoma", "experiment": "B16-FLT3L melanoma model", "format": "in vivo, mouse", "details": "VitE plus ICT"}, "H-2Kb-SIINFEKL": {"tested_on": "H-2Kb-SIINFEKL", "experiment": "Antigen cross-presentation: H-2Kb-SIINFEKL on OVA-loaded DCs by flow cytometry", "format": "cell-based, mouse", "description": "FIG. 4A: Flow cytometric analysis and quantification of H-2Kb-SIINFEKL in OVA-loaded sgCtrl or sgPtpn6-DC2.4 cells without or with TCM treatment (n=3). FIG. 4B: FCM analysis and quantification of H-2K^b-SIINFEKL in the vehicle or VitE-treated BMDCs with or without TCM treatment (n=5). Error bars, s.e.m. ns, no significant. *P<0.05, **P<0.01. ***P<0.001. ****P<0.0001.\nThe most critical function of DCs is the cross-presentation of tumor antigens to T-cells (Guermonprez et al., 2002). We assessed the membrane MHC-I complexes that were loaded with intracellularly processed OVA-derived peptide (H-2Kb-SIINFEKL) on OVA-loaded DCs with VitE-treatment. […] Therefore, VitE administration enhances the activation and antigen cross-presentation function of DCs to provoke antigen-specific antitumor T-cell immunity. We quantified H-2Kb-SIINFEKL in the vehicle-or VitE-treated sgCtrl-DC2.4 or sgPtpn6-DC2.4 (n=3). […] Thus. SHP1 inhibition in DCs by VitE treatment or Ptpn6 knockout enhances antigen cross-presentation that boosts CD8+ T-cell antitumor immunity."}, "HY19636 KPC tumor": {"tested_on": "HY19636 KPC tumor", "experiment": "Orthotopic HY19636 KPC PDAC tumor model", "format": "in vivo, mouse", "protocol": "FIG. 6E: Measurement of maximal tumor diameter in HY1936 KPC tumor-bearing mice treated with gemcitabine (GEM, 25 mg/kg by i.p.) and ICT (anti-PDI/anti-CTLA4) along with vehicle or VitE (n=5). FIG. 6F: Kaplan-Meier survival curve of HY19636 KPC tumor-bearing mice treated with vehicle, GEM (gemcitabine, 25 mg/kg by i.p.), GEM+ICT (anti-PDI/anti-CTLA4) plus vehicle or VitE (n=6).\nSyngeneic orthotopic PDAC tumors were established by surgical implantation. Briefly, 2,000 HY19636 KPC cells in 50 μl PBS were injected into each pancreas of the C57BL/6J mouse.\nTreatments were given as single agents or in combinations with the indicated regimens for each group. VitE (D-α-Tocopherol type VI, Cat.T1539, Sigma-Aldrich) was formulated in the vehicle (10% ethanol in sterile water) and administered by oral gavage once a day at a dose of 50 mg/kg body weight (100 μl at 10 mg/ml per day), corresponding to 400 to 600 mg/day in a human weighing 60 kg, which is within the range of doses recommended for supplement and pharmacological use. VitE treatment was initiated on day 4 ending until the ending point.\nFor chemo combination treatment, HY19636 KPC tumor-bearing mice were treated with gemcitabine (GEM) at 25 mg/kg body weight by i.p. injection once a week from day 7 and 4T1 TNBC tumor-bearing mice were given with doxorubicin (Dox, 5 mg/kg body weight) by i.v. once a week from day 10. The chemotherapeutic doses and schedules used in this study are below or within the range of the concentrations used in the clinic after converting drug doses between species."}, "[1]": {"details": "VitE 50 mg/kg and ICT (anti-PD1) combo-treatment"}, "[2]": {"details": "VitE added to GEM+ICT vs GEM+ICT+vehicle"}},
  "data": [
    {"smiles": "Cc1c(C)c2c(c(C)c1O)CC[C@@](C)(CCC[C@H](C)CCC[C@H](C)CCCC(C)C)O2", "note": "[VitE, D-α-Tocopherol]", "values": [
      {"measurement": "SHP1 activity in BMDCs", "setting": "SHP1", "value": "marked reduction of SHP1 function"},
      {"measurement": "average tumor volume at day 15", "setting": "EMT6 mammary tumors; BALB/c mice, n=10 per group, vehicle-treated 350 mm^3", "value": 173, "unit": "mm^3"},
      {"measurement": "pY564-SHP1 level in TADCs", "setting": "EMT6 mammary tumors; CyTOF, day 15 post-implantation, VitE vs vehicle", "value": "reduced the pY564-SHP1 level in TADCs"},
      {"measurement": "therapeutic response", "setting": "EMT6 mammary tumors; [1]", "value": "significantly improved therapeutic response"},
      {"measurement": "tumor growth", "setting": "EMT6 mammary tumors; VitE alone vs vehicle-treated group", "value": "reduced tumor growth"},
      {"measurement": "tumor infiltration of immune cells (CyTOF of CD45+ cells)", "setting": "EMT6 mammary tumors; VitE treatment vs vehicle", "value": "increased the tumor infiltrations of CD11c+DCs and CD8+ T cells"},
      {"measurement": "tumor growth", "setting": "B16-GMCSF melanoma; GVAX+VitE (50 mg/kg/day oral gavage day 4-20)", "value": "significant tumor inhibition"},
      {"measurement": "tumor-infiltrating GZMB+CD8+ T cells", "setting": "B16-GMCSF melanoma; GVAX+VitE, day 14 post-implantation", "value": "increased tumor-infiltrating cytolytic GZMB CD8^+ T cells"},
      {"measurement": "therapeutic response", "setting": "B16-GMCSF melanoma; [1]", "value": "significantly improved therapeutic response"},
      {"measurement": "ICT response", "setting": "B16-FLT3L melanoma", "value": "effectively enhanced their ICT responses"},
      {"measurement": "H-2Kb-SIINFEKL molecules on sgPtpn6-DC2.4 cells", "setting": "H-2Kb-SIINFEKL; VitE treatment of SHP1-knockout cells", "value": "did not further increase H-2Kb-SIINFEKL molecules"},
      {"measurement": "H-2Kb-SIINFEKL molecules on DC2.4 cells", "setting": "H-2Kb-SIINFEKL; vs vehicle-treated sgCtrl-DC2.4 cells", "value": "significantly increased H-2Kb-SIINFEKL molecules on DC2.4 cells"},
      {"measurement": "survival time", "setting": "HY19636 KPC tumor; [2]", "value": "prolonged the survival time"},
      {"measurement": "tumor growth", "setting": "HY19636 KPC tumor; [2]", "value": "effectively inhibited the HY19636KPC PDAC tumor growth"},
      {"measurement": "ascites", "setting": "HY19636 KPC tumor; VitE added to GEM+ICT, day 25", "value": "reduced tumor-induced ascites"}
    ]}
  ]
}
